Data reported in patent publication US20240306682A1, “Process for providing a combination of fermented seaweed and/or algae and plant material selected from the family Fabaceae” (FERMENTATIONEXPERTS A/S, priority 2020, published 2024).

Test system: salmons
Test: Fish feeding experiment, fillet colour by SalmoFan color measurement scale
Format: in vivo
Details: salmon fillets, supplement in basic fish feed (50 mg astaxanthin/kg or 15% (w/w) fermented composition), fed for 8 weeks
Description: The colour intensity of a salmonoid fillets according to the present invention may be determined by the SalmoFan™ color measurement scale. The SalmoFan™ color measurement scale has been developed by DSM and may be determined physically, using visual inspection applying a colour scale, or by digitally determination, using a colour sensor to determine the colour intensity. Fish feeding experiment using the following feed are performed: • (1) A basic fish feed comprising 50 mg chemically produced astaxanthin/kg basic fish feed; • (2) A basic fish feed comprising 15% (w/w) of a fermented composition comprising 99% fermented rapeseed meal and 1% fermented seaweed; and • (3) A basic fish feed comprising 15% (w/w) of a fermented composition as provided in Example 1, comprising 93% fermented soymeal, 6% fermented rapeseed meal and 1% fermented seaweed. 3 ponds with each 10 salmons of about 3 kg per salmon was fed with the above-mentioned basic fish feed, including supplement (1), (2) or (3), in the stated concentrations, for a period of 8 weeks. After the […] weeks the salmons were harvested, gutted and filleted and the colour of the fillets was determined by the SalmoFan™ color measurement scale.

In the case of `CC1=C(/C=C/C(C)=C/C=C/C(C)=C/C=C/C=C(C)/C=C/C=C(C)/C=C/C2=C(C)C(=O)[C@@H](O)CC2(C)C)C(C)(C)C[C@H](O)C1=O` [supplement 1, astaxanthin], the Colour intensity is reported as 23-23.
